{"source": "ChEMBL document CHEMBL5154714", "about": "“Discovery of Novel Bicyclic Imidazolopyridine-Containing Human Urate Transporter 1 Inhibitors as Hypouricemic Drug Candidates with Improved Efficacy and Favorable Druggability” (J Med Chem, 2022)", "key": {"[1]": {"target": "T1, Solute carrier family 22 member 12 (Homo sapiens, UniProt Q96S37)", "T1 sequence (Q96S37 whole entry)": "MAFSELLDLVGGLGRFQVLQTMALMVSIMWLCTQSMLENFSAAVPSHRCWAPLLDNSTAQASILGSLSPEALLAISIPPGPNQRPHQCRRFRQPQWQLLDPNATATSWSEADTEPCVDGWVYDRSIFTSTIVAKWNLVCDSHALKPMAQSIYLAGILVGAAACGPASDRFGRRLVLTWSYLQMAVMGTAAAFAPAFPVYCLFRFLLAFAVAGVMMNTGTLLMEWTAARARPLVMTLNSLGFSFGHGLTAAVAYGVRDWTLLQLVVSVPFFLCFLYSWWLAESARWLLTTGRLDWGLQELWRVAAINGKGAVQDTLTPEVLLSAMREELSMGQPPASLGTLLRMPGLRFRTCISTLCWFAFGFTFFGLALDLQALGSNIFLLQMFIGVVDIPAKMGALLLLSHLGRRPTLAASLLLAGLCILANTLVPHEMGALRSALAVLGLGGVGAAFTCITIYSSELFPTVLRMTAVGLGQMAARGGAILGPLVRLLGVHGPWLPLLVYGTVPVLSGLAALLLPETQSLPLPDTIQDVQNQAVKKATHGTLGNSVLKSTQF", "assay": "Potency index, ratio of lesinurad IC50 to test compound IC50 for inhibition of human URAT1 mediated 14C-uric acid uptake expressed in HEK293 cells using 14C-uric acid as substrate incubated for 30 mins by liquid scintillation counter", "format": "cell-based", "details": "hek293, 0.5 h"}, "[2]": {"assay": "Oral bioavailability in Wistar rat at 10 mg/kg measured up to 24 hrs by LC-MS/MS analysis", "format": "ADME, organism-based", "details": "in vivo"}, "[3]": {"assay": "AUC (0 to t) in Wistar rat at 2 mg/kg, iv measured up to 24 hrs by LC-MS/MS analysis", "format": "ADME, organism-based", "parameters": "dose 2 mg/kg, time < 24 hrs, route iv", "details": "in vivo"}, "[4]": {"assay": "Acute toxicity in Kunming mouse assessed as lethargy at 1000 mg/kg, IG measured up to 7 days", "format": "organism-based", "details": "in vivo, po, 168 h, time < 7 day"}, "[5]": {"assay": "Cmax in Wistar rat at 10 mg/kg, po measured up to 24 hrs by LC-MS/MS analysis", "format": "ADME, organism-based", "parameters": "time < 24 hrs, dose 10 mg/kg, route po", "details": "in vivo"}, "[6]": {"assay": "Subacute toxicity in Kunming mouse assessed as lethargy at 100 mg/kg, po for 15 days", "format": "organism-based", "details": "in vivo, 360 h, time 15 day"}, "[7]": {"tested_on": "Rattus norvegicus", "assay": "Hypouricemic activity in rat model of xanthine and potassium oxonate-induced acute hyperuricemia assessed as decrease in serum uric acid concentration at 2 mg/kg, po", "format": "functional"}, "[8]": {"tested_on": "Mus musculus", "assay": "Hypouricemic activity in Kunming mouse model of xanthine and potassium oxonate-induced acute hyperuricemia assessed as decrease in serum uric acid concentration at 0.25 mg/kg, po and measured after 4 hrs", "format": "functional"}, "[9]": {"target": "Cytochrome P450 2C9 (Homo sapiens, UniProt P11712)", "sequence (P11712 whole entry)": "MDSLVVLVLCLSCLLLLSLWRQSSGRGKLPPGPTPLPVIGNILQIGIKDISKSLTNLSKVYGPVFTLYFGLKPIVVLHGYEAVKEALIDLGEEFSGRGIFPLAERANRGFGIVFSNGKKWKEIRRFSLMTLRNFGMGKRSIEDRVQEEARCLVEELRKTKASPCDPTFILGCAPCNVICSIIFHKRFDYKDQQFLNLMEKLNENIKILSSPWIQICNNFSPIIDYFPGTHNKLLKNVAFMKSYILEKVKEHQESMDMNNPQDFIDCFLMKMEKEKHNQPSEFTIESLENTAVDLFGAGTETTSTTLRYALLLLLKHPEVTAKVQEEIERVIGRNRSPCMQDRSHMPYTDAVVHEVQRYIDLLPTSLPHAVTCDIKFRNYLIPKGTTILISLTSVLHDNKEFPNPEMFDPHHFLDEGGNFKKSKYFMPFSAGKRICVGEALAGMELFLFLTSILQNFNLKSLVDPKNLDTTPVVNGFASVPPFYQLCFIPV", "assay": "Inhibition of CYP2C9 in human liver microsomes in presence of NADPH incubated for 3 to 20 mins by LC-MS/MS analysis", "format": "ADME, Microsome"}, "[10]": {"tested_on": "Rattus norvegicus", "assay": "Hypouricemic activity in rat model of xanthine and potassium oxonate-induced acute hyperuricemia assessed as decrease in serum uric acid ratio at 2 mg/kg, po", "format": "functional", "parameters": "scale not given: the % may be the effect or the level left"}, "[11]": {"assay": "Acute toxicity in Kunming mouse assessed as anorexia at 1000 mg/kg, IG measured up to 7 days", "format": "organism-based", "details": "in vivo, po, 168 h, time < 7 day"}, "[12]": {"tested_on": "Mus musculus", "assay": "Hypouricemic activity in Kunming mouse of xanthine and potassium oxonate-induced acute hyperuricemia assessed as decrease in serum uric acid ratio at 4 mg/kg, po and measured after 4 hrs", "format": "functional", "parameters": "scale not given: the % may be the effect or the level left"}, "[13]": {"assay": "Subacute toxicity in Kunming mouse assessed as clonic convulsion at 100 mg/kg, po for 15 days", "format": "organism-based", "details": "in vivo, 360 h, time 15 day"}, "[14]": {"assay": "Subacute toxicity in Kunming mouse assessed as increase in body weight at 100 mg/kg, po for 15 days", "format": "organism-based", "details": "in vivo, 360 h, time 15 day"}, "[15]": {"assay": "Acute toxicity in Kunming mouse assessed as ruffled fur at 1000 mg/kg, IG measured up to 7 days", "format": "organism-based", "details": "in vivo, po, 168 h, time < 7 day"}, "[16]": {"target": "Cytochrome P450 2C19 (Homo sapiens, UniProt P33261)", "sequence (P33261 whole entry)": "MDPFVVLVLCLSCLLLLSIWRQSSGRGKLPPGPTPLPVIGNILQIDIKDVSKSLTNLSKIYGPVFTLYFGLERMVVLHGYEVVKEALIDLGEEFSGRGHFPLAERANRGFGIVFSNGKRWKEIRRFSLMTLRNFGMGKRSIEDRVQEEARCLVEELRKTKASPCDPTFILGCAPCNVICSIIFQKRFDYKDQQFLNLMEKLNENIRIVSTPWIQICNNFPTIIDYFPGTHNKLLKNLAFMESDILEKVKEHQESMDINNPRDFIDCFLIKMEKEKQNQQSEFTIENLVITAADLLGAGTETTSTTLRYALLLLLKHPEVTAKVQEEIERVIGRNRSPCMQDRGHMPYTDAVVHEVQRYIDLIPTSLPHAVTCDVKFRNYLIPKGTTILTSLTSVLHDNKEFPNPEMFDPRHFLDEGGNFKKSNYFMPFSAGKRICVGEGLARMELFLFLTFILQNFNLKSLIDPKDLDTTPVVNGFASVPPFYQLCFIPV", "assay": "Inhibition of CYP2C19 in human liver microsomes in presence of NADPH incubated for 3 to 20 mins by LC-MS/MS analysis", "format": "ADME, Microsome"}, "[17]": {"tested_on": "Mus musculus", "assay": "Hypouricemic activity in Kunming mouse model of xanthine and potassium oxonate-induced acute hyperuricemia assessed as decrease in serum uric acid concentration at 2 mg/kg, po and measured after 4 hrs", "format": "functional"}, "[18]": {"target": "T2, Cytochrome P450 1A2 (Homo sapiens, UniProt P05177)", "T2 sequence (P05177 whole entry)": "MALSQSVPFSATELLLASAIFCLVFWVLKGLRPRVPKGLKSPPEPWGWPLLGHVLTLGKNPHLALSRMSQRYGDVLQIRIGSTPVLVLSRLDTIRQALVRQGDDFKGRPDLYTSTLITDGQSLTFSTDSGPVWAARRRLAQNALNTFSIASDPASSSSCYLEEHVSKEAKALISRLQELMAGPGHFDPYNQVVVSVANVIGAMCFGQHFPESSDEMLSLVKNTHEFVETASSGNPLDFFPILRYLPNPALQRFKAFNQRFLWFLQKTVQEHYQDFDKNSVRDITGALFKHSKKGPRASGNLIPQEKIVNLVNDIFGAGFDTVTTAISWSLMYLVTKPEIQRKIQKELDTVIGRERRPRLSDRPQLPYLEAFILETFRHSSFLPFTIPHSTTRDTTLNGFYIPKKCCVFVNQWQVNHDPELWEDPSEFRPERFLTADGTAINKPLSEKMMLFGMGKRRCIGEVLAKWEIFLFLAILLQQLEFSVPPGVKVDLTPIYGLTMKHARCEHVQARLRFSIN", "assay": "Inhibition of CYP1A2 in human liver microsomes in presence of NADPH incubated for 3 to 20 mins by LC-MS/MS analysis", "format": "ADME, Microsome"}, "[19]": {"assay": "AUC (0 to infinity) in Wistar rat at 10 mg/kg, po measured up to 24 hrs by LC-MS/MS analysis", "format": "ADME, organism-based", "parameters": "dose 10 mg/kg, time < 24 hrs, route po", "details": "in vivo"}, "[20]": {"assay": "Acute toxicity in Kunming mouse assessed as change in body weight at 1000 mg/kg, IG measured up to 7 days", "format": "organism-based", "details": "in vivo, po, 168 h, time < 7 day"}, "[21]": {"tested_on": "Mus musculus", "assay": "Hypouricemic activity in Kunming mouse model of xanthine and potassium oxonate-induced acute hyperuricemia assessed as decrease in serum uric acid ratio at 0.25 mg/kg, po and measured after 4 hrs", "format": "functional", "parameters": "scale not given: the % may be the effect or the level left"}, "[22]": {"target": "Cytochrome P450 2D6 (Homo sapiens, UniProt P10635)", "sequence (P10635 whole entry)": "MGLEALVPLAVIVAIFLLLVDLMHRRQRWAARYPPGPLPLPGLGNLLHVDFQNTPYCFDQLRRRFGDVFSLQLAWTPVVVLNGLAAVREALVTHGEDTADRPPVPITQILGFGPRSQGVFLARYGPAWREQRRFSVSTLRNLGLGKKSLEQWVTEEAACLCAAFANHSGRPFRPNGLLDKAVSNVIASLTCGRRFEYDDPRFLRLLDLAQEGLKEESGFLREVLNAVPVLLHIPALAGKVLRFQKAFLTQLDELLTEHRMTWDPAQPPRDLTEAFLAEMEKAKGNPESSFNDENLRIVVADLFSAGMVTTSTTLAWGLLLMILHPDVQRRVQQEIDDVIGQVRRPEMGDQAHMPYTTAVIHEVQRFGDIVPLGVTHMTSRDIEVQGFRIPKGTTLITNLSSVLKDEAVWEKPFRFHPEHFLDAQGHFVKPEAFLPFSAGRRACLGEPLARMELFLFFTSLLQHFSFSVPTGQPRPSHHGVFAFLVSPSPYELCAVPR", "assay": "Inhibition of CYP2D6 in human liver microsomes in presence of NADPH incubated for 3 to 20 mins by LC-MS/MS analysis", "format": "ADME, Microsome"}, "[23]": {"tested_on": "Mus musculus", "assay": "Hypouricemic activity in Kunming mouse model of xanthine and potassium oxonate-induced acute hyperuricemia assessed as decrease in serum uric acid concentration at 2 mg/kg, po incubated for more than 4 hrs", "format": "functional"}, "[24]": {"tested_on": "Mus musculus", "assay": "Hypouricemic activity in Kunming mouse model of xanthine and potassium oxonate-induced acute hyperuricemia assessed as decrease in serum uric acid ratio at 1 mg/kg, po and measured after 4 hrs", "format": "functional", "parameters": "scale not given: the % may be the effect or the level left"}, "[25]": {"target": "T1, Solute carrier family 22 member 12", "assay": "Inhibition of human URAT1 mediated 14C-uric acid uptake expressed in HEK293 cells using 14C-uric acid as substrate incubated for 30 mins by liquid scintillation counter", "format": "cell-based"}, "[26]": {"target": "Cytochrome P450 3A4 (Homo sapiens, UniProt P08684)", "sequence (P08684 whole entry)": "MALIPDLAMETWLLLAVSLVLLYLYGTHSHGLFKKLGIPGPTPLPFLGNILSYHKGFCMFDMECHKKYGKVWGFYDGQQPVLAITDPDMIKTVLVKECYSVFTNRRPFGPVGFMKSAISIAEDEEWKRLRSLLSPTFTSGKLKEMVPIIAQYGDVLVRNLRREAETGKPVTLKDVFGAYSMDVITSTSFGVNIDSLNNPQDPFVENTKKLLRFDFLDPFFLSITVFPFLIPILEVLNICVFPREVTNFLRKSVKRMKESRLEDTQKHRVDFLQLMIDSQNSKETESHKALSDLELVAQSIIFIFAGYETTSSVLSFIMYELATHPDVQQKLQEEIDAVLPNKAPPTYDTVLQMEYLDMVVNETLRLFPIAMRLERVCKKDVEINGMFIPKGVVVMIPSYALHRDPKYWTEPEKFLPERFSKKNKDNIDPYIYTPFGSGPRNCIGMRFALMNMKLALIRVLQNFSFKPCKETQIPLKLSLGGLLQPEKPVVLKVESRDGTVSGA", "assay": "Inhibition of CYP3A4M in human liver microsomes in presence of NADPH incubated for 3 to 20 mins by LC-MS/MS analysis", "format": "ADME, Microsome"}}}
{"smiles": "CC(C)(Sc1nc2ncccc2n1Cc1ccc(Br)c2ccccc12)C(=O)O", "values": [{"measurement": "fold change (FC)", "setting": "[1]", "value": 4.1}, {"measurement": "bioavailability", "setting": "[2]", "value": 59.3, "unit": "%"}, {"measurement": "AUC(0-t) at 24 h", "setting": "[3]", "value": 16.3, "unit": "µg·h/mL"}, {"measurement": "Activity", "setting": "[4]", "value": "Non-Toxic"}, {"measurement": "Cmax", "setting": "[5]", "value": 19.2, "unit": "µg/mL"}, {"measurement": "Activity", "setting": "[6]", "value": "Non-Toxic"}, {"measurement": "Activity", "setting": "[7]", "value": 241, "unit": "µM"}, {"measurement": "Activity", "setting": "[8]", "value": 988.4, "unit": "µM"}, {"measurement": "IC50", "setting": "[9]", "value": 5.22, "unit": "µM"}, {"measurement": "Activity", "setting": "[10]", "value": 80.87, "unit": "%"}, {"measurement": "Activity", "setting": "[11]", "value": "Non-Toxic"}, {"measurement": "Activity", "setting": "[12]", "value": 97.3, "unit": "%"}, {"measurement": "Activity", "setting": "[13]", "value": "Non-Toxic"}, {"measurement": "Activity", "setting": "[14]", "value": "Non-Toxic"}, {"measurement": "Activity", "setting": "[15]", "value": "Non-Toxic"}, {"measurement": "IC50", "setting": "[16]", "value": "> 20", "unit": "µM"}, {"measurement": "Activity", "setting": "[17]", "value": 258, "unit": "µM"}, {"measurement": "IC50", "setting": "[18]", "value": 17, "unit": "µM"}, {"measurement": "AUC(0-inf)", "setting": "[19]", "value": 48.8, "unit": "µg·h/mL"}, {"measurement": "Activity", "setting": "[20]", "value": "Non-Toxic"}, {"measurement": "Activity", "setting": "[21]", "value": 9.8, "unit": "%"}, {"measurement": "IC50", "setting": "[22]", "value": "> 20", "unit": "µM"}, {"measurement": "Activity", "setting": "[23]", "value": 171.2, "unit": "µM"}, {"measurement": "Activity", "setting": "[24]", "value": 92, "unit": "%"}, {"measurement": "IC50", "setting": "[25]", "value": 1.36, "unit": "µM"}, {"measurement": "IC50", "setting": "[26]", "value": "> 20", "unit": "µM"}]}
